{
  "source": "ChEMBL document CHEMBL5038633",
  "about": "(J Med Chem, 2022)",
  "key": {"[1]": {"target": "Sodium channel protein type 4 subunit alpha (Homo sapiens, UniProt P35499)", "sequence (P35499 whole entry)": "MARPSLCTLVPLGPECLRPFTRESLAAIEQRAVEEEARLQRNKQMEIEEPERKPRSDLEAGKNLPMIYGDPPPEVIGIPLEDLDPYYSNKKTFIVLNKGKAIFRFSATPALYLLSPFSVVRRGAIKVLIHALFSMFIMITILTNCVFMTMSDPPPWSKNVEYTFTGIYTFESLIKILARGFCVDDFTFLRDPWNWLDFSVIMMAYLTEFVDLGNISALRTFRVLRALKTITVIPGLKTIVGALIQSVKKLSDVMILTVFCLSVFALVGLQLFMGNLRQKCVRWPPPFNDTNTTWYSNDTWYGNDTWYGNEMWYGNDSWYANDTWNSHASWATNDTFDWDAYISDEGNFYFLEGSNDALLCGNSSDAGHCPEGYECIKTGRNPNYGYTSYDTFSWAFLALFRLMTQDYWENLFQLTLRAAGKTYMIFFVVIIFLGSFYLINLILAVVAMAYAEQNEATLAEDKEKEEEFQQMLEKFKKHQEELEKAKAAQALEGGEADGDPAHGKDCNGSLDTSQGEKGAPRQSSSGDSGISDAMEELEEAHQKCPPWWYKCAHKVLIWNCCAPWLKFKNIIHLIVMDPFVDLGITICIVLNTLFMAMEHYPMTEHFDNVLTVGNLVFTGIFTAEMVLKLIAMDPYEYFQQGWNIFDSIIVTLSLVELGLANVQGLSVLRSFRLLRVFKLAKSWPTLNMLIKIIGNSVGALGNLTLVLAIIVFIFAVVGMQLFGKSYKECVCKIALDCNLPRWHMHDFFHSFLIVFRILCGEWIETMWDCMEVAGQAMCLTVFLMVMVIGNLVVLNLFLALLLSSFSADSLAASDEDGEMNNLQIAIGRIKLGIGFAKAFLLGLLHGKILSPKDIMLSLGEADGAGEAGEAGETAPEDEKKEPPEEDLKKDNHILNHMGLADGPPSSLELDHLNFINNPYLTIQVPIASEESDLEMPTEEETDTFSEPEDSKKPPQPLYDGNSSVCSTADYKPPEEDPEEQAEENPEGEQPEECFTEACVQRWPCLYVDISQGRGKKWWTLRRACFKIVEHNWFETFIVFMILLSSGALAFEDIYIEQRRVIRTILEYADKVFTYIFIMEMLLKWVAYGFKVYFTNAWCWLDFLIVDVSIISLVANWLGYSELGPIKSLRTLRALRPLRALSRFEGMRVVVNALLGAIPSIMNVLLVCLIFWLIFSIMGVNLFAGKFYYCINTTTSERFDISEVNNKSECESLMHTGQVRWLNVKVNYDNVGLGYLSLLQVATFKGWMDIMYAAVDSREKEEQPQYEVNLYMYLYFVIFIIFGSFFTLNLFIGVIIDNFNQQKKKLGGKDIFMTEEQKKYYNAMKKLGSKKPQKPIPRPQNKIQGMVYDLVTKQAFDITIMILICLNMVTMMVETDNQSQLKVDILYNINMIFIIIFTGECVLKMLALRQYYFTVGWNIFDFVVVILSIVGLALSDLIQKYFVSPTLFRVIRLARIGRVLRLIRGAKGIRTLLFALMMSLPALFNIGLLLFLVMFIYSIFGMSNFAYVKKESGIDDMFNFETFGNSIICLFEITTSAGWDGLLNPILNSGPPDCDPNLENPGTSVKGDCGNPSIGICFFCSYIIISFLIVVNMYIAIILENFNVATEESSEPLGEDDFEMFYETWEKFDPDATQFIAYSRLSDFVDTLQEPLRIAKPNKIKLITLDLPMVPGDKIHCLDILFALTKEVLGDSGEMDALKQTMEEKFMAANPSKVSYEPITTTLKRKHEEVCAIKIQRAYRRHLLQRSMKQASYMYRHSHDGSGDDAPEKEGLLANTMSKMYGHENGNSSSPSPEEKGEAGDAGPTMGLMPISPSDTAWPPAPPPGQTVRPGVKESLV", "assay": "Inhibition of human Nav1.4 stably expressed in cells with train pulses to -20 mV at 0.1 Hz and holding potential of -95 mV by whole-cell Qube-automated patch clamp assay", "format": "cell-based"}, "[2]": {"target": "Voltage-gated inwardly rectifying potassium channel KCNH2 (Homo sapiens, UniProt Q12809)", "sequence (Q12809 whole entry)": "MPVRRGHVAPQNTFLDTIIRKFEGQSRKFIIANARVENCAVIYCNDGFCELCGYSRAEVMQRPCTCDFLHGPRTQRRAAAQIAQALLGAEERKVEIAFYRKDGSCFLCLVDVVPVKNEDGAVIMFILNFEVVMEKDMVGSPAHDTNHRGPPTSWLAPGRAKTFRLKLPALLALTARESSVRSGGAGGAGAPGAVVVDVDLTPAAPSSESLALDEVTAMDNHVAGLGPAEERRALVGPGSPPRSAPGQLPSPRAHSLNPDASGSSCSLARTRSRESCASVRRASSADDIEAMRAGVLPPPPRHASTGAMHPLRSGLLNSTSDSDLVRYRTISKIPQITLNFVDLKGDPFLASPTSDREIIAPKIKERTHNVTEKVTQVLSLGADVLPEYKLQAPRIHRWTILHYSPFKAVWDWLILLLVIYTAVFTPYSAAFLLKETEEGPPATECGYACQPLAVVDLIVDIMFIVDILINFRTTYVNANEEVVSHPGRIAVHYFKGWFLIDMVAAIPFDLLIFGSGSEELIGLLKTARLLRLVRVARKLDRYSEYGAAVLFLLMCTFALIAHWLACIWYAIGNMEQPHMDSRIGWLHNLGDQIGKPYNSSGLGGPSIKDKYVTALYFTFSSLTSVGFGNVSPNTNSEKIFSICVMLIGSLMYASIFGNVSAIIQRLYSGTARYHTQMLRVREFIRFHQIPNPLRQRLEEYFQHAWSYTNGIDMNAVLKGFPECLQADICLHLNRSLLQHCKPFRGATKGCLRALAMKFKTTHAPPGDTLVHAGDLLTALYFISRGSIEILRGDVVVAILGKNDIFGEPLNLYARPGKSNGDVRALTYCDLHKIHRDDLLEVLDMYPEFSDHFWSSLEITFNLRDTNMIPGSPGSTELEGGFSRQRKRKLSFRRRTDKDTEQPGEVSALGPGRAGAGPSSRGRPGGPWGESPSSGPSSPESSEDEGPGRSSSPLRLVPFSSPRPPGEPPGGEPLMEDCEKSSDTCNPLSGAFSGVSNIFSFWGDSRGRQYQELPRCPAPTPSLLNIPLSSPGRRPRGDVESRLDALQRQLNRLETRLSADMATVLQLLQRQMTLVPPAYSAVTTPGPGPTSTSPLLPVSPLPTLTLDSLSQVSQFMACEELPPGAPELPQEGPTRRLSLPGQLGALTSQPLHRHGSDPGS", "assay": "Inhibition of human ERG by PatchXpress assay", "format": "toxicity"}, "[3]": {"target": "Sodium channel protein type 9 subunit alpha (Rattus norvegicus, UniProt O08562)", "assay": "Inhibition of rat Nav1.7 stably expressed in cells with train pulses to -20 mV at 0.1 Hz and holding potential of -90 mV by whole-cell QPatch HT assay", "format": "cell-based"}, "[4]": {"assay": "Ratio of IC50 for inhibition of rat Nav1.7 stably expressed in cells to EC50 for antinociceptive activity against Sprague-Dawley rat model of thermal stimuli induced nociception assessed as concentration required for maximal tail flick withdrawal latency", "format": "functional"}, "[5]": {"target": "Sodium channel protein type 8 subunit alpha (Homo sapiens, UniProt Q9UQD0)", "assay": "Inhibition of human Nav1.6 stably expressed in cells with train pulses to -20 mV at 0.1 Hz and holding potential of -85 mV by whole-cell Qube-automated patch clamp assay", "format": "cell-based"}, "[6]": {"assay": "Inhibition of mast cell degranulation in Wistar Han rat peritoneal lavage mast cells assessed as inhibition histamine release by measuring lowest concentration at which histamine release observed measured after 30 mins", "format": "functional", "details": "0.5 h"}, "Rattus norvegicus [7]": {"test_system": "Rattus norvegicus", "assay": "Antinociceptive activity against Sprague-Dawley rat model of thermal stimuli induced nociception assessed as concentration required for maximal tail flick withdrawal latency administered subcutaneously as single dose measured up to 300 mins by tail flick test", "format": "functional, organism-based", "details": "5 h"}, "[8]": {"target": "Sodium channel protein type 2 subunit alpha (Homo sapiens, UniProt Q99250)", "sequence (Q99250 whole entry)": "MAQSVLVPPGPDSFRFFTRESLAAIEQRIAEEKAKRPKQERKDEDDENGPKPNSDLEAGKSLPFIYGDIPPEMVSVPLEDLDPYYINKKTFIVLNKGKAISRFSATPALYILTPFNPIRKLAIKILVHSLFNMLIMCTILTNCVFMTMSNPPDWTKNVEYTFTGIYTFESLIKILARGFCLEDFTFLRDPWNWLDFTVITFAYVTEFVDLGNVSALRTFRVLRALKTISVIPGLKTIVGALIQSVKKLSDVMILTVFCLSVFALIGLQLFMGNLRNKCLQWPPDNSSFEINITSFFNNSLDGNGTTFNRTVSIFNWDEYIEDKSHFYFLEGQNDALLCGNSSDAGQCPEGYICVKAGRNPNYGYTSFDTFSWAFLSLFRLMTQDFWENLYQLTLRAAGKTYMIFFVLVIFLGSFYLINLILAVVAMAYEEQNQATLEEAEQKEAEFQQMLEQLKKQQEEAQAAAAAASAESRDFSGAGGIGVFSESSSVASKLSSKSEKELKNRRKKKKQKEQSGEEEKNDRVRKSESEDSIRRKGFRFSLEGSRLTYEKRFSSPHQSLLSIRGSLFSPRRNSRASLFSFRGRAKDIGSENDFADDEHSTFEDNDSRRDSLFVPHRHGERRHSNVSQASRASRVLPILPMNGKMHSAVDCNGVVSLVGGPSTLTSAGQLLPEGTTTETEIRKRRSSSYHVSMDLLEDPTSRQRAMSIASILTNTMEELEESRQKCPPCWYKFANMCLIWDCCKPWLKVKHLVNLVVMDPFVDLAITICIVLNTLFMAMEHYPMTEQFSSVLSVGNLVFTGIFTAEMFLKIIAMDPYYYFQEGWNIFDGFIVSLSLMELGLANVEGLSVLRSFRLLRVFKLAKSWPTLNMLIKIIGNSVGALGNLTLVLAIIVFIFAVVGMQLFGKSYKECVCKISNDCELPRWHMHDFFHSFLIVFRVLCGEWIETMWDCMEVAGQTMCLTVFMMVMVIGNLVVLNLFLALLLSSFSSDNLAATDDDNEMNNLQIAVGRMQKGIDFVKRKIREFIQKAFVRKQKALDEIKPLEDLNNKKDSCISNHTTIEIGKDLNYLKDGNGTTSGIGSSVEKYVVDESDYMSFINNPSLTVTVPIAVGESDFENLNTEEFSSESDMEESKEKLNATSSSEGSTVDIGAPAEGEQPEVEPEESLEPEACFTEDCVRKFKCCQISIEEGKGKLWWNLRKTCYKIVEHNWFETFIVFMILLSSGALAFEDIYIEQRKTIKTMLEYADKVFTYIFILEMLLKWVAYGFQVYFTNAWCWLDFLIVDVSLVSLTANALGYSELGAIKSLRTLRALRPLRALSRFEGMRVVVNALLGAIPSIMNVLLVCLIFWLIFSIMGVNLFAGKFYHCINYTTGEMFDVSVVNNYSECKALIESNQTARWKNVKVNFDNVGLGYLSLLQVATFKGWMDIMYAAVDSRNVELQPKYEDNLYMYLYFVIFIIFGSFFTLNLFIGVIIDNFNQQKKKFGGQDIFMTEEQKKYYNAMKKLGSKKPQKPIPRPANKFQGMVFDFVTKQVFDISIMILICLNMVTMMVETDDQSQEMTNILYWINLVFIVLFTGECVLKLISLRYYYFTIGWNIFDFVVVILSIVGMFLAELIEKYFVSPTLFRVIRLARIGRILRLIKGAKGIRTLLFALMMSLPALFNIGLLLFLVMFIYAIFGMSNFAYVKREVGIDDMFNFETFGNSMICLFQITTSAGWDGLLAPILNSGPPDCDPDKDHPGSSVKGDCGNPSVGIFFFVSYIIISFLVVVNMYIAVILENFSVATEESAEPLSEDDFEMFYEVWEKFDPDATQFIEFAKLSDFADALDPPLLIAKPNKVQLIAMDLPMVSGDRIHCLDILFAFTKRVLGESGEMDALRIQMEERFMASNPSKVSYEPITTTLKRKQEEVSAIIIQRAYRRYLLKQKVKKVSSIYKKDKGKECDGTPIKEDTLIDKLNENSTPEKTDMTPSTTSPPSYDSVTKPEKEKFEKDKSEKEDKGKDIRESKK", "assay": "Inhibition of human Nav1.2 stably expressed in cells with train pulses to -20 mV at 0.1 Hz and holding potential of -95 mV by Qube-automated patch clamp assay", "format": "cell-based"}, "[9]": {"target": "Sodium channel protein type 5 subunit alpha (Homo sapiens, UniProt Q14524)", "assay": "Inhibition of human Nav1.5 by PatchXpress assay", "format": "toxicity"}, "[10]": {"assay": "Half life in Wistar Han rat at 0.3 mg/kg, iv measured upto 24 hrs by LC/MS/MS analysis", "format": "ADME, organism-based", "details": "in vivo"}, "[11]": {"target": "Voltage-dependent L-type calcium channel subunit alpha-1C (Homo sapiens, UniProt Q13936)", "assay": "Inhibition of human Cav1.2 stably expressed in HEK293 cells incubated for 30 mins in dark by Fluo-4 AM dye based FLIPR assay", "format": "cell-based"}, "Rattus norvegicus [12]": {"test_system": "Rattus norvegicus", "assay": "Antinociceptive activity against Sprague-Dawley rat model of thermal stimuli induced nociception assessed as increase in tail withdrawal latency administered subcutaneously as single dose measured up to 300 mins by tail flick test", "format": "functional, organism-based", "details": "dose 1-2 mg/kg, time min <=300"}},
  "data": [
    {"smiles": "CSCC[C@@H]1NC(=O)CNC(=O)[C@H](CCC(=O)O)NC(=O)[C@@H]2CSSC[C@H](NC(=O)[C@@H](N)Cc3ccc(O)cc3)C(=O)N[C@@H](CCC(N)=O)C(=O)N[C@@H](CCCCN)C(=O)N[C@@H](Cc3c[nH]c4ccccc34)C(=O)N[C@@H](CCSC)C(=O)N[C@@H](Cc3c[nH]c4ccccc34)C(=O)N[C@@H]([C@@H](C)O)C(=O)N[C@H]3CSSC[C@H](NC(=O)[C@H](C(C)C)NC1=O)C(=O)N[C@@H](CCCNC(=N)N)C(=O)N[C@@H](CC(C)C)C(=O)N[C@@H](Cc1c[nH]c4ccccc14)C(=O)N[C@H](C(=O)N[C@@H](CCCCN)C(=O)N[C@@H](CCCCN)C(=O)N[C@@H](CCCCN)C(=O)N[C@@H](CC(C)C)C(=O)N[C@@H](Cc1c[nH]c4ccccc14)C(N)=O)CSSC[C@H](NC(=O)[C@H](CCCCN)NC(=O)[C@H](CCCNC(=N)N)NC(=O)[C@H](CCC(=O)O)NC(=O)[C@H](CO)NC(=O)[C@H](CC(=O)O)NC3=O)C(=O)N2", "values": [
      {"measurement": "IC50", "setting": "[1]", "value": 93, "unit": "nM"},
      {"measurement": "IC50", "setting": "[2]", "value": 22, "unit": "nM"},
      {"measurement": "IC50", "setting": "[3]", "value": 1.3, "unit": "nM"},
      {"measurement": "fold change (FC)", "setting": "[4]", "value": 50},
      {"measurement": "IC50", "setting": "[5]", "value": 75, "unit": "nM"},
      {"measurement": "LED", "setting": "[6]", "value": 0.37, "unit": "µM"},
      {"measurement": "EC50", "setting": "Rattus norvegicus [7]", "value": 56, "unit": "nM"},
      {"measurement": "IC50", "setting": "[8]", "value": 1500, "unit": "nM"},
      {"measurement": "IC50", "setting": "[9]", "value": 180, "unit": "nM"},
      {"measurement": "half-life", "setting": "[10]", "value": "< 3", "unit": "h"},
      {"measurement": "IC50", "setting": "[11]", "value": 1400, "unit": "nM"},
      {"measurement": "Activity", "setting": "Rattus norvegicus [12]", "value": "Dose-Dependent Effect"}
    ]}
  ]
}
